Assay results taken from patent US20210106742A1, “NON-HEMOLYTIC COMPOSITIONS AND METHODS OF USE FOR RECOVERING DISEASE CAUSING TOXIC CONSTITUENTS IN THE BLOOD” (ACTORIUS INNOVATIONS AND RESEARCH CO, priority 2019, published 2021).
Like-named read-outs stand apart in the source and are kept apart here.

Tests used:
[1] = test system: Red Blood Cells from whole human blood; assay: Red Blood Cells hemolysis assay
Procedure: Red Blood Cells from whole human blood were separated by centrifugation at room temperature and washed in sodium chloride solution two times and resuspended in phosphate buffer saline with pH 7.4. The resuspended red blood cells were incubated with the composition to be evaluated for 30 minutes at 37° C. The samples were centrifuged and the supernatant collected and analyzed for hemolysis using UV spectroscopy. The percentage of hemolysis was estimated against a negative control phosphate buffer saline with pH 7.4 and positive control 0.5% Triton-X100 prepared in phosphate-buffered saline with pH 7.4.
Red Blood Cells from whole human blood (5 milliliter) were separated by centrifugation (500×g, 5 minutes) at room temperature and washed in 150 mM sodium chloride (NaCl) solution two times and resuspended in a total final volume of 5 milliliter with phosphate buffered saline with pH 7.4. The resuspended red blood cells were incubated by mixing with materials listed in Table 1 for 30 minutes at 37° C. The samples were centrifuged (500×g, 5 minutes, room temperature), and supernatants were collected and analyzed for hemolysis using UV spectroscopy at spectra 540 nm. The percentage hemolysis was estimated against a negative control phosphate buffered saline with pH 7.4 and positive control 0.5% Triton-X100.

[2] = test system: circulating tumor cells (CTC); assay: Destruction of circulating tumor cells using cisplatin; type: cell-based, human; details: CTCs isolated with composition of example 33; 30 micrograms Cisplatin in 100 microliter PBS pH 7.4, two hours
Procedure: (§1) 1.5 ml blood of a cancer patient was incubated with 300 micrograms of composition of example 33 for 5 minutes. CTCs were isolated using magnetic separation and cells were fixed with absolute ethanol and immuno-stained with cytokeratin (CK-18), leucocyte common antigen (CD-45) and with nuclear-staining probe 4′,6-diamidino-2-phenylindole (DAPI). Captured cells were imaged under fluorescence microscope, wherein 3 CTCs were isolated.
as §1, with “incubated for two hours with 30 micrograms Cisplatin in 100 microliter phosphate buffered saline, pH 7.4, and the composition was” for “cells were”, “(DAPI) and” for “(DAPI). Captured cells were”, “microscope.” for “microscope, wherein 3 CTCs were isolated.”

CCO[Si](CCCN)(OCC)OCC [(3-Aminopropyl)triethoxysilane]
Percentage Hemolysis ([1]; sample amount 0.5%, 30 minutes at 37° C.): 0% | Percentage Hemolysis ([1]; sample amount 10%, 30 minutes at 37° C.): 36%

N.N.[Cl][Pt][Cl] [Cisplatin]
CTCs observed after incubation with the drug [2]: No CTCs were observed

Triton-X100
Percentage Hemolysis [1]: 100%
